pIC50, pKi: −log10 of the molar value.
Columns and labels:
[1] = biological target: cGMP-specific 3',5'-cyclic phosphodiesterase (Homo sapiens, UniProt O76074); assay: DRUGMATRIX: Phosphodiesterase PDE5 enzyme inhibition (substrate: [3H]cGMP + cGMP); format: tissue-based, Platelet; settings: platelet; Not Active = under 50% inhibition at 10 µM
[2] = biological target: Receptor tyrosine-protein kinase erbB-2 (Homo sapiens, UniProt P04626); assay: biochemical; format: cell-based, Insect cells; settings: for IC50: insect cells;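 on all read-outs here: inhibition of HER2 kinase enzyme activity, measured with Poly(Glu:Tyr) as the phosphorylation substrate; in other assays of this panel Not Active means under 50% inhibition at 10 µM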
[3] = biological target: T1, Cysteinyl leukotriene receptor 1 (Homo sapiens, UniProt Q9Y271); format: cell membranes, Membrane; settings: cho-k1; further: in other assays of this panel Not Active means under 50% inhibition at 10 µM
T1 sequence (Q9Y271 whole entry): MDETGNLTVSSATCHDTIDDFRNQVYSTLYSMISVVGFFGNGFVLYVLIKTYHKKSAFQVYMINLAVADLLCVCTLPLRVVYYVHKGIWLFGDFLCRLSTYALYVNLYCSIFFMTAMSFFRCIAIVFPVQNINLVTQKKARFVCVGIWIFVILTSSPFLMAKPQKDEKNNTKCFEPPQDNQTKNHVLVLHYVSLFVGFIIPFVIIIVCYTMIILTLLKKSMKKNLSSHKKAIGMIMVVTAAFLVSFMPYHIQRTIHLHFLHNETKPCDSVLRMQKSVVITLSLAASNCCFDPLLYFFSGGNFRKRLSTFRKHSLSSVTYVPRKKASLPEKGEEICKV

[4] = DRUGMATRIX: Sigma2 radioligand binding (ligand: [3H] Ifenprodil); format: cell membranes, Rattus norvegicus, Wistar, Brain, Membrane; settings: Not Active = under 50% inhibition at 10 µM
[5] = biological target: C-C chemokine receptor type 2 (Homo sapiens, UniProt P41597); format: cell membranes, Membrane; settings: cho-k1; further: in other assays of this panel Not Active means under 50% inhibition at 10 µM
[6] = biological target: T2, Cholecystokinin receptor type A (Homo sapiens, UniProt P32238); format: cell membranes, Membrane; settings: 1321-n1; further: in other assays of this panel Not Active means under 50% inhibition at 10 µM
T2 sequence (P32238 whole entry): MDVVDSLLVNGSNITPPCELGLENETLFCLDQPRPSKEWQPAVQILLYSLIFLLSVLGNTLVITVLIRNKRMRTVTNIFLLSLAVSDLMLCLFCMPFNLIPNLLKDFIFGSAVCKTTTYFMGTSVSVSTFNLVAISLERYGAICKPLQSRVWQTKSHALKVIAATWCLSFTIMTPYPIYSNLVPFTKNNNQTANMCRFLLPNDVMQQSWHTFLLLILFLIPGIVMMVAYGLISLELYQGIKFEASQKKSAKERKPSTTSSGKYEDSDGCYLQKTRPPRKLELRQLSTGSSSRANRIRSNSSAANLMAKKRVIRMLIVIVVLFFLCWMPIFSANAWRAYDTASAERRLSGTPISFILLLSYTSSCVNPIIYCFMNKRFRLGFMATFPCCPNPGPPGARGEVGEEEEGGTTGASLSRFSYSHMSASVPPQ

[7] = biological target: Adenosine receptor A2a (Homo sapiens, UniProt P29274); assay: DRUGMATRIX: Adenosine A2A radioligand binding (ligand: […]); format: cell membranes, HEK293, Membrane; settings: Not Active = under 50% inhibition at 10 µM; for IC50: hek293
Chain of Adenosine receptor A2a (P29274 whole entry): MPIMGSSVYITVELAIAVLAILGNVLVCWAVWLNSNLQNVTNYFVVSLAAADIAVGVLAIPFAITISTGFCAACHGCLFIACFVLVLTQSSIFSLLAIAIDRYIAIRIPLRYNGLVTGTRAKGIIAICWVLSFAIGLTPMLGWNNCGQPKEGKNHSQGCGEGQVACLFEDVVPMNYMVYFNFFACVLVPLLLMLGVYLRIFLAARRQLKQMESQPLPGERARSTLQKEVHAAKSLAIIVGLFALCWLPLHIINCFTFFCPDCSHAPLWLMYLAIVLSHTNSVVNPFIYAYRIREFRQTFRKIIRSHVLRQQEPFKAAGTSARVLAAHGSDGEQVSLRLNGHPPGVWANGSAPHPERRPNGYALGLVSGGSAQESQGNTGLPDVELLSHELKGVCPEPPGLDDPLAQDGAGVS

Chain of Receptor tyrosine-protein kinase erbB-2 (P04626 whole entry): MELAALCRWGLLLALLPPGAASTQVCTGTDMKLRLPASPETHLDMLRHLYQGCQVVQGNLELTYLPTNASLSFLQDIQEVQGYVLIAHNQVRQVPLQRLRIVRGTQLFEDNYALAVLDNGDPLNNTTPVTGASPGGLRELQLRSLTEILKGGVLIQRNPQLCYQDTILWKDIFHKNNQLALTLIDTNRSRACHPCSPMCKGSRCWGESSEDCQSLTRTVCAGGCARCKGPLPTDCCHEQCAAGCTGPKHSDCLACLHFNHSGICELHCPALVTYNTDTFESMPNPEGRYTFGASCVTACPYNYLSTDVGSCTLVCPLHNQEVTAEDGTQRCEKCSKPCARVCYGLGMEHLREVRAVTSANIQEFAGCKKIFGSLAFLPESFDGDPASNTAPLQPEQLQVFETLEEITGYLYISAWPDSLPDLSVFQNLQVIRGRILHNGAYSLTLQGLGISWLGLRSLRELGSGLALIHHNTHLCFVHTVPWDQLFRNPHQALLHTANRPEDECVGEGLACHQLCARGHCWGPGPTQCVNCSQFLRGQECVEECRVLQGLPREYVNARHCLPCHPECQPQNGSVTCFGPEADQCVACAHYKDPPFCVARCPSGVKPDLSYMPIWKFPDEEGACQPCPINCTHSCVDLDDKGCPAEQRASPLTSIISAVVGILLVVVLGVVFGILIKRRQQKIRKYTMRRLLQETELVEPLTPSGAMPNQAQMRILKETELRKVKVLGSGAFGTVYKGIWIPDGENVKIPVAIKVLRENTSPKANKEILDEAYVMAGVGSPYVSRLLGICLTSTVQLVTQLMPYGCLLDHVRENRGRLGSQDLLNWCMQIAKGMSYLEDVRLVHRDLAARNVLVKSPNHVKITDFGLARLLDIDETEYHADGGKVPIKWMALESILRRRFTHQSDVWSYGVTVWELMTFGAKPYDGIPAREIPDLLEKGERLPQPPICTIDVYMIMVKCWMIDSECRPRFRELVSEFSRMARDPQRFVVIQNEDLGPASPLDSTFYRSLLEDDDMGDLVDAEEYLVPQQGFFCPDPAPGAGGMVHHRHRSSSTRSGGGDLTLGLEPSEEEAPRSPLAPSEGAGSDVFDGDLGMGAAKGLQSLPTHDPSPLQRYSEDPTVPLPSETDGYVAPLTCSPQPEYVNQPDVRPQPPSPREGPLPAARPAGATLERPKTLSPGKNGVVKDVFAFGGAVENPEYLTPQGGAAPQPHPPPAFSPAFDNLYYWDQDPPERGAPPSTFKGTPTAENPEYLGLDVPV
Chain of C-C chemokine receptor type 2 (P41597 whole entry): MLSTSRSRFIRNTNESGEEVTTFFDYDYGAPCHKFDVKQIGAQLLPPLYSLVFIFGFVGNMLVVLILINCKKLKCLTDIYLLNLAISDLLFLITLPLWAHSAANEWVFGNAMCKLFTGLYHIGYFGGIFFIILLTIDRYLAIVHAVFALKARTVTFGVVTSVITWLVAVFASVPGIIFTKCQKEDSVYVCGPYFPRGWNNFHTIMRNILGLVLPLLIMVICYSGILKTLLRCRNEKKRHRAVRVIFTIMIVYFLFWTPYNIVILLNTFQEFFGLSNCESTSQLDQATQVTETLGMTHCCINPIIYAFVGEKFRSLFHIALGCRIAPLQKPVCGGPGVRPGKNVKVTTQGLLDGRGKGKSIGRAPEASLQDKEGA

| SMILES | IC50 [1] | IC50 [2] | IC50 [3] | IC50 [4] | Ki [4] | IC50 [5] | IC50 [6] | IC50 [7] | pIC50 ([2]; read-out: IC50) | pIC50 ([7]; read-out: IC50) | pKi ([7]; read-out: Ki) |
| --- | --- | --- | --- | --- | --- | --- | --- | --- | --- | --- | --- |
| CCN(C(C)=O)c1cccc(-c2ccnc3c(C#N)cnn23)c1 [ZALEPLON] | Not Active | Not Active | Not Active | Not Active | Not Active | Not Active | Not Active | Not Active |  |  |  |
| N[C@@H](Cn1ccc(=O)c(O)c1)C(=O)O [L-MIMOSINE] | Not Active | Not Active | Not Active | Not Active | Not Active | Not Active | Not Active | Not Active |  |  |  |
| Nc1cc(-c2ccncc2)c[nH]c1=O [INAMRINONE] | Not Active | Not Active | Not Active | Not Active | Not Active | Not Active | Not Active | Not Active |  |  |  |
| NC(=O)c1cccc(N)c1 [3-AMINOBENZAMIDE] | Not Active | Not Active | Not Active | Not Active | Not Active | Not Active | Not Active | Not Active |  |  |  |
| NC(=O)c1cccnc1 [NIACINAMIDE] | Not Active | Not Active | Not Active | Not Active | Not Active | Not Active | Not Active | Not Active |  |  |  |
| CCC1=C(C)CN(C(=O)NCCc2ccc(S(=O)(=O)NC(=O)N[C@H]3CC[C@H](C)CC3)cc2)C1=O [GLIMEPIRIDE] | Not Active | Not Active | Not Active | Not Active | Not Active | Not Active | Not Active | Not Active |  |  |  |
| CC(C)NCC(O)c1ccccc1Cl (configuration not stated) [CLORPRENALINE] | Not Active | Not Active | Not Active | Not Active | Not Active | Not Active | Not Active | Not Active |  |  |  |
| CC(=O)OCC(=O)[C@@]12OC(C)(C)O[C@@H]1C[C@H]1[C@@H]3C[C@H](F)C4=CC(=O)C=C[C@]4(C)[C@@]3(F)[C@@H](O)C[C@@]12C [FLUOCINONIDE] | Not Active | Not Active | Not Active | Not Active | Not Active | Not Active | Not Active | Not Active |  |  |  |
| COc1cccc2c1C(=O)c1c(O)c3c(c(O)c1C2=O)C[C@@](O)(C(C)=O)C[C@@H]3O[C@H]1C[C@H](N)[C@H](O)[C@H](C)O1 [DAUNORUBICIN] | Not Active | Not Active | Not Active | Not Active | Not Active | Not Active | Not Active | Not Active |  |  |  |
| COc1ccccc1N | Not Active | Not Active | Not Active | Not Active | Not Active | Not Active | Not Active | Not Active |  |  |  |
| CC[C@]1(O)C[C@@H]2CN(CCc3c([nH]c4ccccc34)[C@@](C(=O)OC)(c3cc4c(cc3OC)N(C)[C@H]3[C@@](O)(C(N)=O)[C@H](O)[C@]5(CC)C=CCN6CC[C@]43[C@@H]65)C2)C1 [VINDESINE] | Not Active | Not Active | Not Active | Not Active | Not Active | Not Active | Not Active | Not Active |  |  |  |
| CCOc1nc2cccc(C(=O)O)c2n1Cc1ccc(-c2ccccc2-c2nnn[nH]2)cc1 | Not Active |  | Not Active | Not Active | Not Active | Not Active | Not Active | Not Active | 5.23 |  |  |
| C[S+](C)[O-] [DIMETHYL SULFOXIDE] | Not Active | Not Active | Not Active | Not Active | Not Active | Not Active | Not Active | Not Active |  |  |  |
| C[C@@H]1O[C@@H](O[C@H]2C[C@@H](O)[C@]3(CO)[C@H]4[C@H](O)C[C@]5(C)[C@@H](C6=CC(=O)OC6)CC[C@]5(O)[C@@H]4CC[C@]3(O)C2)[C@H](O)[C@H](O)[C@H]1O [OUABAIN] | Not Active | Not Active | Not Active | Not Active | Not Active | Not Active | Not Active | Not Active |  |  |  |
| C#C[C@]1(O)CC[C@H]2[C@@H]3CCC4=CC(=O)CC[C@]4(C)[C@H]3CC[C@@]21C [ETHISTERONE] | Not Active | Not Active | Not Active | Not Active | Not Active | Not Active | Not Active | Not Active |  |  |  |
| O=C(c1ccccc1F)N1CCC(Cc2ccccc2)CC1 | Not Active | Not Active | Not Active | Not Active | Not Active | Not Active | Not Active | Not Active |  |  |  |
| O=C(O)CCNC(=O)c1ccc(/N=N/c2ccc(O)c(C(=O)O)c2)cc1 [BALSALAZIDE] | Not Active | Not Active | Not Active | Not Active | Not Active | Not Active | Not Active | Not Active |  |  |  |
| N=C(N)c1ccc(OCCCCCOc2ccc(C(=N)N)cc2)cc1 [PENTAMIDINE] | Not Active | Not Active | Not Active | Not Active | Not Active | Not Active | Not Active | Not Active |  |  |  |
| CN1C(=O)CN=C(c2ccccc2)c2cc([N+](=O)[O-])ccc21 [NIMETAZEPAM] | Not Active | Not Active | Not Active | Not Active | Not Active | Not Active | Not Active | Not Active |  |  |  |
| NS(=O)(=O)c1cc(C2(O)NC(=O)c3ccccc32)ccc1Cl (configuration not stated) [CHLORTHALIDONE] | Not Active | Not Active | Not Active | Not Active | Not Active | Not Active | Not Active | Not Active |  |  |  |
| CC(=O)OCC(=O)[C@@]1(O)CC[C@H]2[C@@H]3CCC4=CC(=O)CC[C@]4(C)[C@@]3(F)[C@@H](O)C[C@@]21C [FLUDROCORTISONE ACETATE] | Not Active | Not Active | Not Active | Not Active | Not Active | Not Active | Not Active | Not Active |  |  |  |
| O=c1c(-c2ccc(O)cc2)coc2cc(O)cc(O)c12 [GENISTEIN] | Not Active | Not Active | Not Active | Not Active | Not Active | Not Active | Not Active |  |  | 4.76 | 5.01 |
| CN1C[C@@H]2C[C@H]1CN2c1cc2c(cc1F)c(=O)c(C(=O)O)cn2C1CC1 [DANOFLOXACIN] | Not Active | Not Active | Not Active | Not Active | Not Active | Not Active | Not Active | Not Active |  |  |  |
| C[C@]12C=CC(=O)C=C1CC[C@H]1[C@@H]3C[C@@H](O)[C@](O)(C(=O)CO)[C@@]3(C)C[C@H](O)[C@@]12F [TRIAMCINOLONE] | Not Active | Not Active | Not Active | Not Active | Not Active | Not Active | Not Active | Not Active |  |  |  |
| CN1CCN(c2c(F)cc3c(=O)c(C(=O)O)cn(CCF)c3c2F)CC1 [FLEROXACIN] | Not Active | Not Active | Not Active | Not Active | Not Active | Not Active | Not Active | Not Active |  |  |  |
| CC(C)(C(=O)O)c1ccc(C(O)CCCN2CCC(C(O)(c3ccccc3)c3ccccc3)CC2)cc1 (configuration not stated) [FEXOFENADINE] | Not Active | Not Active | Not Active | Not Active | Not Active | Not Active | Not Active | Not Active |  |  |  |
| CC(O)(P(=O)(O)O)P(=O)(O)O [ETIDRONIC ACID] | Not Active | Not Active | Not Active | Not Active | Not Active | Not Active | Not Active | Not Active |  |  |  |

From ChEMBL document CHEMBL1909046, “DrugMatrix in vitro pharmacology data”
